Broadly, the Ki is a measure of affinity in units of concentration, obtained from inhibition or displacement. The term Kb denotes the affinity of an antagonist, worked out from how it opposes an agonist.

The text below walks through data of patent US6951882B2, “Substituted 4-phenyl-[1,3]-dioxanes” (Janssen Pharmaceutica N.V., priority 2002, dated 2005).

For experiment [1], the target named is T1, orexin-2 receptor (Homo sapiens, UniProt O43614).
T1 construct: expressed in transfected cells; host or cells: CHO-K1 (preferred) or HEK-293 recombinant clones
T1 sequence (O43614 1-444): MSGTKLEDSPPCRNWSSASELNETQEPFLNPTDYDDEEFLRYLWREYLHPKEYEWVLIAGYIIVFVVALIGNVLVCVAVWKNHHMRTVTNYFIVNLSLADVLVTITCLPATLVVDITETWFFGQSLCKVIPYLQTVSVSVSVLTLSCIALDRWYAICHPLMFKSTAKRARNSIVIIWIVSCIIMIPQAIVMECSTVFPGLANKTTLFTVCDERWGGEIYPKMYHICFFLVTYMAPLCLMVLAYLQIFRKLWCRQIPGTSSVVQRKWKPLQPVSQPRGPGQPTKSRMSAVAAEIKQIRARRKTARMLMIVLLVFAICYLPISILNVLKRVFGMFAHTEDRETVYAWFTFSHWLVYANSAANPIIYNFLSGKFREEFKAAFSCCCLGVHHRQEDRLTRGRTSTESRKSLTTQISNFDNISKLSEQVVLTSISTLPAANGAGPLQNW
The experiment can be described thus: Orexin radioligand binding assay (125I-orexin A, adherent recombinant cells). As to conditions: 125I-orexin A displacement, recombinant CHO-K1 or HEK-293 cells expressing the orexin receptor. As for the experimental part:
The reaction was quenched with 100 μL of 10% w/v bovine serum albumin, then the products were pre-purified using Waters Maxi-Clean C18 cartridges (Alltech, San Jose, Calif.). The mobile phase for the reverse phase separations (pre-purification and gradient HPLC) was 0.1% TFA, and the eluent was 0.1% TFA in acetonitrile. After removing the acetonitrile from the Maxi-Clean cartridge eluent by lyophilization, the labeled compound was further purified by gradient HPLC using a Vydac (Hesperia, Calif.) analytical C18 HPLC column. A gradient of 2% acetonitrile/min was used and fractions were collected every 0.75 min at a flow rate of 1.5 mL/min.
Radioligand binding assays were performed in opaque, white 96-well tissue culture plates pretreated with poly-D-lysine (Bio-Coat plates, Becton Dickinson, Franklin Lakes, N.J.). Cells expressing the orexin receptor were seeded at 30,000 cells/well in 100 μL/well Ham's F12 with 10% heat inactivated fetal bovine serum, penicillin/streptomycin and 800 mg/L G418. […] In preparation for the binding assay, the cell culture medium was aspirated away, and the cells were gently washed with 100 μL-well binding buffer (Dulbecco's phosphate buffered saline containing 0.1% w/v bovine serum albumin). […] The assay was terminated by aspirating the liquid from the wells, washing the wells with iced binding buffer, aspirating the wells dry, adding 50 μL/well scintillation cocktail (MicroScint 40, Packard Biosciences, Meriden Conn.), and counting the plate(s) in a Packard TopCount scintillation counter. […] Data were analyzed using GraphPad Prizm software to calculate Ki values.

Experiment [2] addresses T2, orexin receptors in PFSK-1 cells (Homo sapiens, UniProt O43614).
T2 construct: host or cells: PFSK-1
T2 sequence (O43614 1-444): T1 sequence (O43614 1-444)
In words: Intracellular calcium ion measurement (FLIPR, Fluo-3 AM) in PFSK-1 cells, antagonism of orexin agonist. It is filed as cell-based. On the procedure: PFSK-1 cells were obtained from the American Type Culture Collection (CRL-2060; Manassas, Va.) and cultured as described by Fults et al. (J. Neuropathology Exp. Neurology, 1992, 51 (3):272-280). Cells were grown on 10 or 15 cm tissue culture dishes (Corning Inc., Corning, N.Y.) in RPMI medium 1640 containing 25 mM Hepes and L-glutamine (Gibco/InVitrogen, Carlsbad, Calif.) supplemented with 10% fetal bovine serum (HyClone, Logan, Utah), 50 u/mL penicillin G, and 50 u/mL streptomycin sulphate. Cells grown on 10 dishes were grown in 10 mL complete medium, and cells grown on 15 cm dishes were grown in 30 mL complete medium. Cells were passed every 3 to 5 days at a 1:5 dilution by aspirating away the medium, adding 2 mL/dish Gibco/Invitrogen Trypsin-EDTA solution, aspirating away the solution, incubating at room temperature 5 min, and dispersing the cells into fresh plates using fresh complete medium. Cells were then maintained in incubators set to maintain 37° C. and 5% CO2.
Agonist binding of orexin receptors elevates the intracellular free calcium ion concentration through the activation of a Gq protein and the opening of voltage-activated plasmalemmal calcium channels (see: A. N. Van Den Pol et al. J. Neurosci., 1998, 18(19):7962-7971). This effect was monitored using the fluorescent Ca^++ indicator Fluo-3 AM (TefLabs, Austin, Tex.) and the Molecular Devices (Sunnyvale, Calif.) FLIPR instrument.
PFSK-1 cells were removed from confluent tissue culture dishes with trypsin-EDTA as described above and plated in 96-well Packard Viewplates (Meriden, Conn.) at 50,000 cells/well in 100 μL/well complete medium. The next day the cells, which adhered to the Viewplates and grew to confluency, were loaded with the fluorescent dye. […] Test compounds were added to the wells in an isotonic, pH-neutral vehicle, such as Dulbecco's phosphate-buffered saline, and changes in intracellular calcium concentrations were measured using the FLIPR instrument.
The compounds were delivered to the test wells, and the compounds and the cells were incubated to allow binding. […] The control column for the antagonist screen included positive and negative controls to indicate the fluorescence of a full agonist response and the baseline.
Antagonism was analyzed by calculating KB and pKB values for compounds found to inhibit increases in intracellular Ca^++ concentrations of PFSK-1 cells. This was accomplished by determining the EC50 of orexin B and comparing the IC50 values determined from dilutions of antagonist compound(s), all on a single 96-well Viewplate of PFSK-1 cells loaded with Fluo-3 AM. […] The KB is then determined after Y.-C. […]
(Calcium flux is commonly read through the fluorescence of an indicator in the cells.)

`CC1(C)OC[C@H](NC(=O)Nc2ccc(Br)cc2Cl)[C@H](c2ccccc2)O1` [Example 1, 1-(4-Bromo-2-chloro-phenyl)-3-((4S,5S)-2,2-dimethyl-4-phenyl-[1,3]dioxan-5-yl)-urea]: the Ki in experiment [1] came out at 9 nM. Further, in experiment [2], the Kb was 25.1 nM.
For `CC1(C)OC[C@H](NC(=O)Nc2ccc(Br)cc2Br)[C@H](c2ccccc2)O1` [Example 4, 1-(2,4-Dibromo-phenyl)-3-((4S,5S)-2,2-dimethyl-4-phenyl-[1,3]dioxan-5-yl)-urea] the same measures were 10 nM and 5.01 nM.
The like results for `CC1(C)OC[C@H](NC(=O)Nc2ccc(Cl)cc2Cl)[C@H](c2ccccc2)O1` [Example 5, 1-(2,4-Dichloro-phenyl)-3-((4S,5S)-2,2-dimethyl-4-phenyl-[1,3]dioxan-5-yl)-urea] were, in that order, 15 nM and 25.1 nM.
The like results for `Cc1ccc(NC(=O)N[C@H]2COC(C)(C)O[C@H]2c2ccccc2)c(Br)c1` [Example 12, 1-(2-Bromo-4-methyl-phenyl)-3-((4S,5S)-2,2-dimethyl-4-phenyl-[1,3]dioxan-5-yl)-urea] were, in that order, 5 nM and 6.31 nM.
Take `COC(=O)c1ccccc1NC(=O)N[C@H]1COC(C)(C)O[C@H]1c1ccccc1` [Example 40, 2-[3-((4S,5S)-2,2-Dimethyl-4-phenyl-[1,3]dioxan-5-yl)-ureido]-benzoic acid methyl ester]: in experiment [1], the Ki is 1200 nM.
Still for that read-out and setting: in the case of `CC1(C)OC[C@H](NC(=O)Nc2ccccc2C(=O)O)[C@H](c2ccccc2)O1` [Example 41, 2-[3-((4S,5S)-2,2-Dimethyl-4-phenyl-[1,3]dioxan-5-yl)-ureido]-benzoic acid] it was 710 nM.
Same read-out and setting: the same measure for `CC(C)c1ccccc1NC(=O)N[C@H]1COC(C)(C)O[C@H]1c1ccccc1` [Example 42, 1-((4S,5S)-2,2-Dimethyl-4-phenyl-[1,3]dioxan-5-yl)-3-(2-isopropyl-phenyl)-urea]: 2900 nM; for `CC1(C)OC[C@H](NC(=O)Nc2c(Cl)cccc2Cl)[C@H](c2ccccc2)O1` [Example 43, 1-(2,6-Dichloro-phenyl)-3-((4S,5S)-2,2-dimethyl-4-phenyl-[1,3]dioxan-5-yl)-urea]: 5000 nM.
Same read-out and setting: the same measure for `CC1(C)OC[C@H](NC(=O)Nc2cccc(Br)c2)[C@H](c2ccccc2)O1` [Example 44, 1-(3-Bromo-phenyl)-3-((4S,5S)-2,2-dimethyl-4-phenyl-[1,3]dioxan-5-yl)-urea]: 3800 nM.
Regarding `CC1(C)OC[C@H](NC(=O)Nc2ccc(F)cc2F)[C@H](c2ccccc2)O1` [Example 45, 1-(2,4-Difluoro-phenyl)-3-((4S,5S)-2,2-dimethyl-4-phenyl-[1,3]dioxan-5-yl)-urea], the Ki in experiment [1] turned out to be 6000 nM.
Same read-out and setting: in the case of `CC1(C)OC[C@H](NC(=O)Nc2cccc(Cl)c2)[C@H](c2ccccc2)O1` [Example 46, 1-(3-Chloro-phenyl)-3-((4S,5S)-2,2-dimethyl-4-phenyl-[1,3]dioxan-5-yl)-urea] it was 2000 nM.
